Results as given in ChEMBL document CHEMBL1201862, “PubChem BioAssay data set” (2004).
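How tested: cells in 96-well plates exposed to compound for 48 hours at five concentrations. GI50 is the concentration that inhibits growth by half.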 Active and inactive are the calls of the source. Rule as the data show it: active = GI50 up to about 1.1 µM and inactive = higher.

How the values were obtained:
Experiment in all cases: growth of human tumour cells (NCI), 48 h
[1] = system: KM12
[2] = system: DMS-114
[3] = system: UO-31
[4] = system: IGROV-1
[5] = system: SK-OV-3
[6] = system: SW-620
[7] = system: DLD-1
[8] = system: HCT-116
[9] = system: Malme-3M
[10] = system: NCI-H522
[11] = system: OVCAR-8
[12] = system: HCT-15
[13] = system: OVCAR-5
[14] = system: SNB-75
[15] = system: HOP-92
[16] = system: DMS-273
[17] = system: HOP-18
[18] = system: HOP-62
[19] = system: UACC-62
[20] = system: MOLT-4
[21] = system: RPMI-8226
[22] = system: HL-60
[23] = system: OVCAR-3
[24] = system: NCI-H23
[25] = system: A549
[26] = system: HT-29
[27] = system: TK-10
[28] = system: CCRF-CEM
[29] = system: NCI-H460
[30] = system: SF-268
[31] = system: SK-MEL-2
[32] = system: K562
[33] = system: U-251
[34] = system: 786-0
[35] = system: SF-295
[36] = system: SNB-78
[37] = system: EKVX
[38] = system: COLO 205
[39] = system: OVCAR-4
[40] = system: UACC-257
[41] = system: SK-MEL-28
[42] = system: XF498
[43] = system: SNB-19
[44] = system: HCC 2998
[45] = system: LXFL 529
[46] = system: KM-20L2
[47] = system: M19-MEL
[48] = system: M14
[49] = system: NCI-H226
[50] = system: SF-539
[51] = system: LOX IMVI
[52] = system: SK-MEL-5
[53] = system: CAKI-1
[54] = system: SN12C
[55] = system: A498
[56] = system: ACHN

## O=C(C/C(CCC(=O)N(Cc1ccccc1)Cc1ccccc1)=N/Nc1ccc([N+](=O)[O-])cc1[N+](=O)[O-])c1ccccc1
[1]
  GI50: 77.1 µM (inactive)
[2]
  GI50: > 100 µM (inactive)
[3]
  GI50: 35.2 µM (inactive)
[4]
  GI50: > 100 µM (inactive)
[5]
  GI50: > 100 µM (inactive)
[6]
  GI50: 45.2 µM (inactive)
[7]
  GI50: 49.9 µM (inactive)
[8]
  GI50: > 100 µM (inactive)
[9]
  GI50: > 100 µM (inactive)
[10]
  GI50: > 100 µM (inactive)
[11]
  GI50: > 100 µM (inactive)
[12]
  GI50: 40.5 µM
[13]
  GI50: > 100 µM (inactive)
[14]
  GI50: > 100 µM (inactive)
[15]
  GI50: > 100 µM (inactive)
[16]
  GI50: > 100 µM (inactive)
[17]
  GI50: > 100 µM (inactive)
[18]
  GI50: 70.8 µM (inactive)
[19]
  GI50: 25.9 µM (inactive)
[20]
  GI50: 22.8 µM (inactive)
[21]
  GI50: 81.1 µM (inactive)
[22]
  GI50: 41.2 µM (inactive)
[23]
  GI50: > 100 µM (inactive)
[24]
  GI50: > 100 µM (inactive)
[25]
  GI50: 86.1 µM (inactive)
[26]
  GI50: 54.1 µM (inactive)
[27]
  GI50: > 100 µM (inactive)
[28]
  GI50: 35.9 µM (inactive)
[29]
  GI50: 92.9 µM (inactive)
[30]
  GI50: 38.8 µM (inactive)
[31]
  GI50: > 100 µM (inactive)
[32]
  GI50: 28.1 µM (inactive)
[33]
  GI50: > 100 µM (inactive)
[34]
  GI50: > 100 µM (inactive)
[35]
  GI50: > 100 µM (inactive)
[36]
  GI50: > 100 µM (inactive)
[37]
  GI50: > 100 µM (inactive)
[38]
  GI50: > 100 µM (inactive)
[39]
  GI50: 60.8 µM (inactive)
[40]
  GI50: > 100 µM (inactive)
[41]
  GI50: > 100 µM (inactive)
[42]
  GI50: > 100 µM (inactive)
[43]
  GI50: > 100 µM (inactive)
[44]
  GI50: 74.5 µM (inactive)
[45]
  GI50: 25 µM (inactive)
[46]
  GI50: 33.3 µM (inactive)
[47]
  GI50: 68.4 µM (inactive)
[48]
  GI50: 68.9 µM (inactive)
[49]
  GI50: > 100 µM (inactive)
[50]
  GI50: 54 µM (inactive)
[51]
  GI50: 25.4 µM (inactive)

## CC(=O)O[C@H]1CCN2C(=O)C=CC(OCc3ccccc3)C12 (some centres undefined)
[1]
  GI50: > 100 µM (inactive)
[2]
  GI50: > 100 µM (inactive)
[3]
  GI50: > 100 µM (inactive)
[4]
  GI50: > 100 µM (inactive)
[5]
  GI50: > 100 µM (inactive)
[6]
  GI50: > 100 µM (inactive)
[7]
  GI50: > 100 µM (inactive)
[9]
  GI50: > 100 µM (inactive)
[11]
  GI50: > 100 µM (inactive)
[52]
  GI50: > 100 µM (inactive)
[12]
  GI50: > 100 µM
[13]
  GI50: > 100 µM (inactive)
[53]
  GI50: > 100 µM (inactive)
[14]
  GI50: > 100 µM (inactive)
[15]
  GI50: > 100 µM (inactive)
[16]
  GI50: > 100 µM (inactive)
[17]
  GI50: > 100 µM (inactive)
[18]
  GI50: > 100 µM (inactive)
[19]
  GI50: > 100 µM (inactive)
[20]
  GI50: > 100 µM (inactive)
[21]
  GI50: > 100 µM (inactive)
[22]
  GI50: > 100 µM (inactive)
[23]
  GI50: > 100 µM (inactive)
[24]
  GI50: > 100 µM (inactive)
[25]
  GI50: > 100 µM (inactive)
[26]
  GI50: > 100 µM (inactive)
[27]
  GI50: > 100 µM (inactive)
[28]
  GI50: > 100 µM (inactive)
[29]
  GI50: > 100 µM (inactive)
[30]
  GI50: > 100 µM (inactive)
[31]
  GI50: > 100 µM (inactive)
[32]
  GI50: > 100 µM (inactive)
[33]
  GI50: > 100 µM (inactive)
[34]
  GI50: > 100 µM (inactive)
[35]
  GI50: > 100 µM (inactive)
[54]
  GI50: > 100 µM (inactive)
[36]
  GI50: > 100 µM (inactive)
[37]
  GI50: > 100 µM (inactive)
[38]
  GI50: > 100 µM (inactive)
[39]
  GI50: > 100 µM (inactive)
[40]
  GI50: > 100 µM (inactive)
[41]
  GI50: > 100 µM (inactive)
[42]
  GI50: > 100 µM (inactive)
[44]
  GI50: > 100 µM (inactive)
[45]
  GI50: > 100 µM (inactive)
[46]
  GI50: > 100 µM (inactive)
[55]
  GI50: > 100 µM (inactive)
[47]
  GI50: > 100 µM (inactive)
[48]
  GI50: > 100 µM (inactive)
[49]
  GI50: > 100 µM (inactive)
[56]
  GI50: > 100 µM (inactive)
[50]
  GI50: > 100 µM (inactive)
[51]
  GI50: > 100 µM (inactive)
